# Results: PubChem BioAssay (NCI)
# Where “and” joins values, the source holds several entries; their conditions need not be identical. Equal entries are not always repeated.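 Briefly, cells in 96-well plates were exposed to five compound concentrations for 48 h, and endpoints were estimated by linear interpolation. GI50 marks 50% less growth. TGI marks complete inhibition of growth.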
# What was measured:
# Assay in all cases: inhibition of tumour cell growth, NCI panel, 48 h
# ACHN renal = system: ACHN renal
# NCI-H522 lung = system: NCI-H522 lung
# PC-3 prostate = system: PC-3 prostate
# SK-MEL-2 melanoma = system: SK-MEL-2 melanoma
# SK-MEL-28 melanoma = system: SK-MEL-28 melanoma
# SK-OV-3 ovarian = system: SK-OV-3 ovarian
# SNB-19 CNS = system: SNB-19 CNS
# SR leukemia = system: SR leukemia
# UACC-257 melanoma = system: UACC-257 melanoma
# OVCAR-5 ovarian = system: OVCAR-5 ovarian
Compound,TGI (ACHN renal),TGI (NCI-H522 lung),GI50 (PC-3 prostate),TGI (PC-3 prostate),TGI (SK-MEL-2 melanoma),TGI (SK-MEL-28 melanoma),TGI (SK-OV-3 ovarian),TGI (SNB-19 CNS),GI50 (SR leukemia),TGI (SR leukemia),TGI (UACC-257 melanoma),GI50 (ACHN renal),GI50 (NCI-H522 lung),GI50 (OVCAR-5 ovarian),TGI (OVCAR-5 ovarian),GI50 (SK-MEL-2 melanoma),GI50 (SK-MEL-28 melanoma),GI50 (SK-OV-3 ovarian),GI50 (SNB-19 CNS),GI50 (UACC-257 melanoma)
CO[C@H]1[C@H](O)[C@H](O[C@H]2CC[C@@]3(C)[C@H](CC[C@@H]4[C@@H]3CC[C@]3(C)[C@@H](C5=CC(=O)OC5)CC[C@]43O)C2)O[C@@H](C)[C@@H]1O,0.00152 µM,0.000282 µM,0.00525 µM,0.524 µM,0.00476 µM and < 0.0175 µM,0.00622 µM and < 0.0227 µM,0.00245 µM and 0.0106 µM,0.00324 µM,< 0.0001 µM,0.0273 µM,0.00571 µM and < 0.0137 µM,–,–,–,–,–,–,–,–,–
COc1cc2c3c(n(CCCN)c(=O)c2cc1OC)-c1ccc(F)cc1C3=O,6.14 µM,20.3 µM,1.41 µM,6.64 µM,34.7 µM,26.9 µM,17.7 µM,15.9 µM,0.118 µM,1.14 µM,31 µM,0.861 µM,2.35 µM,10.4 µM,22.7 µM,17 µM,12.6 µM,3.87 µM,1.47 µM,13.9 µM
COc1c2ccccc2c(O)c2c(=O)c(C(=O)O)cn(C)c12,> 100 µM,> 100 µM,> 100 µM,> 100 µM,> 100 µM,> 100 µM,> 100 µM,> 100 µM,> 100 µM,> 100 µM,> 100 µM,> 100 µM,> 100 µM,> 100 µM,> 100 µM,> 100 µM,65 µM,> 100 µM,> 100 µM,> 100 µM
Nc1nc2c(c3ncccc13)C(c1cccc(Cl)c1)Cc1ncccc1-2 (stereo not drawn),67.1 µM,2.82 µM,2.6 µM,17.6 µM,15.4 µM,28.4 µM,23.2 µM,17.7 µM,0.469 µM,14.3 µM,44.5 µM,5.13 µM,0.417 µM,6.42 µM,> 100 µM,1.84 µM,8.17 µM,2.69 µM,2.5 µM,15 µM
C#CCN1CCN(C(=S)N/N=C(\C)c2ccccn2)CC1,4.41 µM and 6.2 µM,6.52 µM and 2.27 µM,0.0121 µM,2.48 µM and 1.45 µM,5.41 µM and 4.64 µM,8.06 µM and 7.04 µM,2.91 µM and 5.09 µM,17.2 µM,–,2.36 µM,2.72 µM and 2.53 µM,0.0578 µM,< 0.0292 µM,0.14 µM,4.65 µM and 3.11 µM,2.4 µM,2.09 µM,1.57 µM,4.53 µM,0.00558 µM
O=C(Oc1ccc([N+](=O)[O-])cc1)N1CCN(Cc2cccc(Oc3ccccc3)c2)CC1,> 100 µM,> 100 µM,> 69.6 µM,> 100 µM,> 100 µM,> 100 µM,> 100 µM,> 100 µM,22.5 µM,> 100 µM,> 100 µM,> 100 µM,> 50.9 µM,> 100 µM,> 100 µM,> 67.1 µM,> 100 µM,> 100 µM,> 100 µM,> 76.9 µM
CCc1cccc(CC)c1NC(=S)NC(=O)c1ccc(Br)cc1,> 100 µM,51.3 µM,–,> 100 µM,48.9 µM,> 100 µM,> 100 µM,> 100 µM,–,66.3 µM,> 100 µM,–,–,–,> 100 µM,–,–,–,–,–
CN(C)CCNC(=O)c1cccc2cc3ccccc3nc12,2.85 µM,3.12 µM,2.33 µM,10.8 µM,4.34 µM,4.41 µM,11 µM,> 21.6 µM,0.338 µM,8.1 µM,3.55 µM,0.437 µM,1.32 µM,2.27 µM,> 24.3 µM,2.27 µM,1.97 µM,1.03 µM,2.21 µM,1.6 µM
COc1ncc(-c2nc3c(n2C(C)C)[C@H](c2ccc(Cl)cc2)N(c2cc(Cl)cn(C)c2=O)C3=O)c(OC)n1,> 100 µM,> 100 µM,20.2 µM,> 100 µM,> 100 µM,> 100 µM,> 100 µM,> 100 µM,6.14 µM,77.1 µM,94.4 µM,15.2 µM,69.2 µM,> 100 µM,> 100 µM,46.3 µM,42.2 µM,40.4 µM,61.5 µM,17.2 µM
Nc1ccn([C@H]2C[C@@H](O)[C@@H](CO)S2)c(=O)n1,> 100 µM,> 100 µM,> 100 µM,> 100 µM,> 100 µM,> 100 µM,> 100 µM,> 100 µM,> 100 µM,> 100 µM,> 100 µM,8.65 µM,–,> 100 µM,> 100 µM,> 100 µM,> 100 µM,> 100 µM,> 100 µM,> 100 µM
CCCCn1c2c(c3ccccc3c1=O)C(=O)c1ccccc1-2,–,> 100 µM,–,> 100 µM,> 100 µM,> 100 µM,> 100 µM,–,–,> 100 µM,> 100 µM,–,–,–,> 100 µM,–,–,–,–,–
O=C(Nc1cnn2ccc(N3CCC[C@@H]3c3cc(F)ccc3F)nc12)N1CC[C@H](O)C1,> 100 µM,> 100 µM,> 100 µM,> 100 µM,> 100 µM,> 100 µM,> 100 µM,> 100 µM,> 100 µM,> 100 µM,–,> 100 µM,> 100 µM,> 100 µM,> 100 µM,> 100 µM,> 100 µM,> 100 µM,> 100 µM,–
C=C(CN1CCN(c2cccc(C(F)(F)F)c2)CC1)c1ccc(C(=O)Nc2ccccc2N)cc1,11.1 µM,> 16.1 µM,0.615 µM,> 50 µM,32.2 µM,> 27.2 µM,–,> 30.2 µM,0.0568 µM,> 50 µM,17.8 µM,0.92 µM,6.14 µM,6.63 µM,26.4 µM,3.44 µM,3.4 µM,–,4.11 µM,0.762 µM
